Assay results published in PubChem BioAssay (NCI).
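GI50 is the concentration that inhibits growth by half. At the TGI there is no net growth.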

How the values were obtained:
Test in all cases: growth of human tumour cells (NCI), 384-well format
[1] = system: HT29 colon
[2] = system: 786-0 renal
[3] = system: UACC-62 melanoma
[4] = system: OVCAR-4 ovarian
[5] = system: SK-MEL-28 melanoma
[6] = system: SK-MEL-5 melanoma
[7] = system: SW-620 colon
[8] = system: HCC-2998 colon
[9] = system: NCI-H522 lung
[10] = system: MOLT-4 leukemia
[11] = system: HOP-92 NSCLC
[12] = system: T-47D breast
[13] = system: LOX IMVI melanoma
[14] = system: NCI-H226 lung
[15] = system: RXF 393 renal
[16] = system: HL-60(TB) leukemia
[17] = system: NCI-H322M lung
[18] = system: HCT-15 colon
[19] = system: SR leukemia
[20] = system: UACC-257 melanoma
[21] = system: EKVX NSCLC
[22] = system: SF-268 CNS
[23] = system: SF-539 CNS
[24] = system: NCI-H460 NSCLC
[25] = system: MDA-MB-468 breast
[26] = system: SN12C renal
[27] = system: MDA-MB-435 melanoma
[28] = system: UO-31 renal
[29] = system: MDA-MB-231 breast
[30] = system: DU-145 prostate
[31] = system: U251 glioblastoma
[32] = system: PC-3 prostate
[33] = system: CCRF-CEM leukemia
[34] = system: M14 melanoma
[35] = system: SNB-19 CNS
[36] = system: RPMI-8226 leukemia
[37] = system: OVCAR-8 ovarian
[38] = system: BT-549 breast
[39] = system: SF-295 CNS
[40] = system: SNB-75 CNS
[41] = system: HOP-62 NSCLC
[42] = system: OVCAR-5 ovarian
[43] = system: A549 NSCLC
[44] = system: SK-MEL-2 melanoma
[45] = system: HCT-116 colon
[46] = system: MCF7 breast
[47] = system: IGROV1 ovarian
[48] = system: MALME-3M melanoma
[49] = system: OVCAR-3 ovarian
[50] = system: ACHN renal
[51] = system: K-562 leukemia
[52] = system: SK-OV-3 ovarian
[53] = system: A498 renal
[54] = system: NCI-H23 lung
[55] = system: TK-10 renal
[56] = system: KM12 colon
[57] = system: CAKI-1 renal
[58] = system: NCI/ADR-RES ovarian
[59] = system: COLO 205 colon

CC(C)(C[C@H]1CN(S(=O)(=O)c2cccc(C(F)(F)F)c2)c2cc(-c3cc(F)cc(OC(F)F)c3)ccc2O1)C(=O)O
GI50 [1]: 3.97 µM | TGI [1]: 13.6 µM | GI50 [2]: 9.51 µM | TGI [2]: 22.8 µM | GI50 [3]: 3.84 µM | TGI [3]: 13.6 µM | GI50 [4]: 9.12 µM | TGI [4]: 21.5 µM | GI50 [5]: 7.37 µM | TGI [5]: 20.1 µM | GI50 [6]: 3.86 µM | TGI [6]: 13.5 µM | GI50 [7]: 2.92 µM | TGI [7]: 7.59 µM | GI50 [8]: 6.63 µM | TGI [8]: 20.7 µM | GI50 [9]: 2.66 µM | TGI [9]: 7.35 µM | GI50 [10]: 3.11 µM | TGI [10]: 8.3 µM | GI50 [11]: 7.09 µM | TGI [11]: 20 µM | GI50 [12]: 5.89 µM | TGI [12]: 18.9 µM | GI50 [13]: 12.8 µM | TGI [13]: 25.4 µM | GI50 [14]: 8.64 µM | TGI [14]: 22 µM | GI50 [15]: 4.02 µM | TGI [15]: 11.1 µM | GI50 [16]: 2.74 µM | TGI [16]: 4.91 µM | GI50 [17]: 12.6 µM | TGI [17]: 25.6 µM | GI50 [18]: 4.15 µM | TGI [18]: 14.1 µM | GI50 [19]: 1.51 µM | TGI [19]: 2.9 µM | GI50 [20]: 8.84 µM | TGI [20]: 23.2 µM | GI50 [21]: 10.7 µM | TGI [21]: 22.8 µM | GI50 [22]: 9.85 µM | TGI [22]: 22.6 µM | GI50 [23]: 6 µM | TGI [23]: 18.4 µM | GI50 [24]: 4.04 µM | TGI [24]: 13 µM | GI50 [25]: 2.66 µM | TGI [25]: 7.31 µM | GI50 [26]: 10.3 µM | TGI [26]: 22.4 µM | GI50 [27]: 2.04 µM | TGI [27]: 4.48 µM | GI50 [28]: 10.5 µM | TGI [28]: 22.3 µM | GI50 [29]: 8.82 µM | TGI [29]: 21.4 µM | GI50 [30]: 10.1 µM | TGI [30]: 21.9 µM | GI50 [31]: 7.65 µM | TGI [31]: 20.2 µM | GI50 [32]: 8.44 µM | TGI [32]: 20.8 µM | GI50 [33]: 6.52 µM | TGI [33]: 18.4 µM | GI50 [34]: 4.53 µM | TGI [34]: 15.3 µM | GI50 [35]: 8.54 µM | TGI [35]: 20.5 µM | GI50 [36]: 2.78 µM | TGI [36]: 6.15 µM | GI50 [37]: 9.79 µM | TGI [37]: 22.1 µM | GI50 [38]: 2.8 µM | TGI [38]: 9.11 µM | GI50 [39]: 3.02 µM | TGI [39]: 10.3 µM | GI50 [40]: 17.4 µM | TGI [40]: 31.2 µM | GI50 [41]: 4.81 µM | TGI [41]: 16.7 µM | GI50 [42]: 16.3 µM | TGI [42]: 29.9 µM | GI50 [43]: 4.28 µM | TGI [43]: 15.5 µM | GI50 [44]: 2.73 µM | TGI [44]: 7.34 µM | GI50 [45]: 7.93 µM | TGI [45]: 20.5 µM | GI50 [46]: 4.82 µM | TGI [46]: 17.2 µM | GI50 [47]: 7.94 µM | TGI [47]: 20.9 µM | GI50 [48]: 11.5 µM | TGI [48]: 24.5 µM | GI50 [49]: 2.46 µM | TGI [49]: 7.45 µM | GI50 [50]: 13.4 µM | TGI [50]: 26.7 µM | GI50 [51]: 3.18 µM | TGI [51]: 12.1 µM | GI50 [52]: 9.09 µM | TGI [52]: 21.4 µM | GI50 [53]: 4.35 µM | TGI [53]: 15.5 µM | GI50 [54]: 3.38 µM | TGI [54]: 10.7 µM | GI50 [55]: 10.6 µM | TGI [55]: 23.1 µM | GI50 [56]: 4.06 µM | TGI [56]: 14.4 µM | GI50 [57]: 6.92 µM | TGI [57]: 19 µM | GI50 [58]: 2.52 µM | TGI [58]: 7.17 µM | GI50 [59]: 5.83 µM | TGI [59]: 15.3 µM
